{"source": "PubChem BioAssay AID2060901", "about": "(Molecular Pharmacology Branch, DTP, NCI, 2025);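 further: spheroids exposed to compounds for 7 days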;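 on viability, T/C: 100% = DMSO vehicle control viability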", "tested_on": "422866-222-R5-J1-PDC complex spheroids viability", "assay": "Anticancer human tumor 422866-222-R5-J1-PDC patient-derived pancreatic adenocarcinoma cell line growth inhibition [RAS]", "settings": "for IC50: curve of first compound; for viability, T/C: stronger effect = lower value", "in_short": "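Multi-cell-type spheroids: tumor cells plus HUVEC endothelial cells and mesenchymal stem cells. RAS-pathway inhibitors were combined with targeted agents, each dosed in half-log steps down from clinical Cmax, or from 10 microM when Cmax was unknown.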", "key": {"[1]": {"settings": "second compound 0.000949 µM, first compound 0.0316 µM"}, "[2]": {"settings": "second compound 0.000949 µM, first compound 0.1 µM"}, "[3]": {"settings": "second compound 0.000949 µM, first compound 0.316 µM"}, "[4]": {"settings": "second compound 0.000949 µM, first compound 1 µM"}, "[5]": {"settings": "second compound 0.000949 µM, first compound 3.16 µM"}, "[6]": {"settings": "second compound 0.000949 µM, first compound 10 µM"}, "[7]": {"settings": "second compound 0.003 µM, first compound 0.0316 µM"}, "[8]": {"settings": "second compound 0.003 µM, first compound 0.1 µM"}, "[9]": {"settings": "second compound 0.003 µM, first compound 0.316 µM"}, "[10]": {"settings": "second compound 0.003 µM, first compound 1 µM"}, "[11]": {"settings": "second compound 0.003 µM, first compound 3.16 µM"}, "[12]": {"settings": "second compound 0.003 µM, first compound 10 µM"}, "[13]": {"settings": "second compound 0.00949 µM, first compound 0.0316 µM"}, "[14]": {"settings": "second compound 0.00949 µM, first compound 0.1 µM"}, "[15]": {"settings": "second compound 0.00949 µM, first compound 0.316 µM"}, "[16]": {"settings": "second compound 0.00949 µM, first compound 1 µM"}, "[17]": {"settings": "second compound 0.00949 µM, first compound 3.16 µM"}, "[18]": {"settings": "second compound 0.00949 µM, first compound 10 µM"}, "[19]": {"settings": "second compound 0.03 µM, first compound 0.0316 µM"}, "[20]": {"settings": "second compound 0.03 µM, first compound 0.1 µM"}, "[21]": {"settings": "second compound 0.03 µM, first compound 0.316 µM"}, "[22]": {"settings": "second compound 0.03 µM, first compound 1 µM"}, "[23]": {"settings": "second compound 0.03 µM, first compound 3.16 µM"}, "[24]": {"settings": "second compound 0.03 µM, first compound 10 µM"}, "[25]": {"settings": "second compound 0.0949 µM, first compound 0.0316 µM"}, "[26]": {"settings": "second compound 0.0949 µM, first compound 0.1 µM"}, "[27]": {"settings": "second compound 0.0949 µM, first compound 0.316 µM"}, "[28]": {"settings": "second compound 0.0949 µM, first compound 1 µM"}, "[29]": {"settings": "second compound 0.0949 µM, first compound 3.16 µM"}, "[30]": {"settings": "second compound 0.0949 µM, first compound 10 µM"}, "[31]": {"settings": "second compound 0.3 µM, first compound 0.0316 µM"}, "[32]": {"settings": "second compound 0.3 µM, first compound 0.1 µM"}, "[33]": {"settings": "second compound 0.3 µM, first compound 0.316 µM"}, "[34]": {"settings": "second compound 0.3 µM, first compound 1 µM"}, "[35]": {"settings": "second compound 0.3 µM, first compound 3.16 µM"}, "[36]": {"settings": "second compound 0.3 µM, first compound 10 µM"}}, "data": [{"smiles": "CC1(O)CCCC1n1c(=O)c(C(F)F)cc2cnc(NC3CCN(S(C)(=O)=O)CC3)nc21", "note": "(centres undefined) + CCn1c(-c2cccnc2C(C)OC)c2c3cc(ccc31)N1CCOC(CC(NC(=O)C(C(C)C)N(C)C(=O)C3(F)CCN(C(=O)C#CC(C)(C)N(C)C)CC3)C(=O)N3CCCC(N3)C(=O)OCC(C)(C)C2)C1", "values": [{"measurement": "IC50", "setting": "second compound 0.000949 µM", "result": "< 31.6", "unit": "nM"}, {"measurement": "IC50", "setting": "second compound 0.003 µM", "result": "< 31.6", "unit": "nM"}, {"measurement": "IC50", "setting": "second compound 0.00949 µM", "result": "< 31.6", "unit": "nM"}, {"measurement": "IC50", "setting": "second compound 0.03 µM", "result": "< 31.6", "unit": "nM"}, {"measurement": "IC50", "setting": "second compound 0.0949 µM", "result": "< 31.6", "unit": "nM"}, {"measurement": "IC50", "setting": "second compound 0.3 µM", "result": "< 31.6", "unit": "nM"}, {"measurement": "viability, T/C", "setting": "[1]", "result": 28.6, "unit": "%"}, {"measurement": "viability, T/C", "setting": "[2]", "result": 30.5, "unit": "%"}, {"measurement": "viability, T/C", "setting": "[3]", "result": 29.6, "unit": "%"}, {"measurement": "viability, T/C", "setting": "[4]", "result": 31.9, "unit": "%"}, {"measurement": "viability, T/C", "setting": "[5]", "result": 40.8, "unit": "%"}, {"measurement": "viability, T/C", "setting": "[6]", "result": 38.2, "unit": "%"}, {"measurement": "viability, T/C", "setting": "[7]", "result": 24.8, "unit": "%"}, {"measurement": "viability, T/C", "setting": "[8]", "result": 34.6, "unit": "%"}, {"measurement": "viability, T/C", "setting": "[9]", "result": 24.7, "unit": "%"}, {"measurement": "viability, T/C", "setting": "[10]", "result": 27.1, "unit": "%"}, {"measurement": "viability, T/C", "setting": "[11]", "result": 29.8, "unit": "%"}, {"measurement": "viability, T/C", "setting": "[12]", "result": 38.2, "unit": "%"}, {"measurement": "viability, T/C", "setting": "[13]", "result": 25.3, "unit": "%"}, {"measurement": "viability, T/C", "setting": "[14]", "result": 24.8, "unit": "%"}, {"measurement": "viability, T/C", "setting": "[15]", "result": 25.2, "unit": "%"}, {"measurement": "viability, T/C", "setting": "[16]", "result": 26.8, "unit": "%"}, {"measurement": "viability, T/C", "setting": "[17]", "result": 34.3, "unit": "%"}, {"measurement": "viability, T/C", "setting": "[18]", "result": 45.2, "unit": "%"}, {"measurement": "viability, T/C", "setting": "[19]", "result": 22.9, "unit": "%"}, {"measurement": "viability, T/C", "setting": "[20]", "result": 20.5, "unit": "%"}, {"measurement": "viability, T/C", "setting": "[21]", "result": 23.5, "unit": "%"}, {"measurement": "viability, T/C", "setting": "[22]", "result": 23, "unit": "%"}, {"measurement": "viability, T/C", "setting": "[23]", "result": 29.7, "unit": "%"}, {"measurement": "viability, T/C", "setting": "[24]", "result": 45.4, "unit": "%"}, {"measurement": "viability, T/C", "setting": "[25]", "result": 21.1, "unit": "%"}, {"measurement": "viability, T/C", "setting": "[26]", "result": 20.5, "unit": "%"}, {"measurement": "viability, T/C", "setting": "[27]", "result": 22.4, "unit": "%"}, {"measurement": "viability, T/C", "setting": "[28]", "result": 22, "unit": "%"}, {"measurement": "viability, T/C", "setting": "[29]", "result": 29.9, "unit": "%"}, {"measurement": "viability, T/C", "setting": "[30]", "result": 43.5, "unit": "%"}, {"measurement": "viability, T/C", "setting": "[31]", "result": 15.5, "unit": "%"}, {"measurement": "viability, T/C", "setting": "[32]", "result": 19.8, "unit": "%"}, {"measurement": "viability, T/C", "setting": "[33]", "result": 19, "unit": "%"}, {"measurement": "viability, T/C", "setting": "[34]", "result": 20.5, "unit": "%"}, {"measurement": "viability, T/C", "setting": "[35]", "result": 24.9, "unit": "%"}, {"measurement": "viability, T/C", "setting": "[36]", "result": 47.3, "unit": "%"}]}, {"smiles": "CCC(CC)c1cc(NC2CCC(N)C2)n2nccc2n1", "note": "(centres undefined) + CCn1c(-c2cccnc2C(C)OC)c2c3cc(ccc31)N1CCOC(CC(NC(=O)C(C(C)C)N(C)C(=O)C3(F)CCN(C(=O)C#CC(C)(C)N(C)C)CC3)C(=O)N3CCCC(N3)C(=O)OCC(C)(C)C2)C1", "values": [{"measurement": "IC50", "setting": "second compound 0.000949 µM", "result": "< 31.6", "unit": "nM"}, {"measurement": "IC50", "setting": "second compound 0.003 µM", "result": "< 31.6", "unit": "nM"}, {"measurement": "IC50", "setting": "second compound 0.00949 µM", "result": "< 31.6", "unit": "nM"}, {"measurement": "IC50", "setting": "second compound 0.03 µM", "result": "< 31.6", "unit": "nM"}, {"measurement": "IC50", "setting": "second compound 0.0949 µM", "result": "< 31.6", "unit": "nM"}, {"measurement": "IC50", "setting": "second compound 0.3 µM", "result": "< 31.6", "unit": "nM"}, {"measurement": "viability, T/C", "setting": "[1]", "result": 28.4, "unit": "%"}, {"measurement": "viability, T/C", "setting": "[2]", "result": 27.2, "unit": "%"}, {"measurement": "viability, T/C", "setting": "[3]", "result": 29.5, "unit": "%"}, {"measurement": "viability, T/C", "setting": "[4]", "result": 32.3, "unit": "%"}, {"measurement": "viability, T/C", "setting": "[5]", "result": 13.3, "unit": "%"}, {"measurement": "viability, T/C", "setting": "[6]", "result": 46.4, "unit": "%"}, {"measurement": "viability, T/C", "setting": "[7]", "result": 27.7, "unit": "%"}, {"measurement": "viability, T/C", "setting": "[8]", "result": 22.5, "unit": "%"}, {"measurement": "viability, T/C", "setting": "[9]", "result": 28.1, "unit": "%"}, {"measurement": "viability, T/C", "setting": "[10]", "result": 28.2, "unit": "%"}, {"measurement": "viability, T/C", "setting": "[11]", "result": 12.1, "unit": "%"}, {"measurement": "viability, T/C", "setting": "[12]", "result": 44.5, "unit": "%"}, {"measurement": "viability, T/C", "setting": "[13]", "result": 23.8, "unit": "%"}, {"measurement": "viability, T/C", "setting": "[14]", "result": 24.4, "unit": "%"}, {"measurement": "viability, T/C", "setting": "[15]", "result": 23.8, "unit": "%"}, {"measurement": "viability, T/C", "setting": "[16]", "result": 29.6, "unit": "%"}, {"measurement": "viability, T/C", "setting": "[17]", "result": 14.5, "unit": "%"}, {"measurement": "viability, T/C", "setting": "[18]", "result": 43.7, "unit": "%"}, {"measurement": "viability, T/C", "setting": "[19]", "result": 21.2, "unit": "%"}, {"measurement": "viability, T/C", "setting": "[20]", "result": 22.1, "unit": "%"}, {"measurement": "viability, T/C", "setting": "[21]", "result": 22.8, "unit": "%"}, {"measurement": "viability, T/C", "setting": "[22]", "result": 25.4, "unit": "%"}, {"measurement": "viability, T/C", "setting": "[23]", "result": 12, "unit": "%"}, {"measurement": "viability, T/C", "setting": "[24]", "result": 42, "unit": "%"}, {"measurement": "viability, T/C", "setting": "[25]", "result": 20.7, "unit": "%"}, {"measurement": "viability, T/C", "setting": "[26]", "result": 15.8, "unit": "%"}, {"measurement": "viability, T/C", "setting": "[27]", "result": 22.4, "unit": "%"}, {"measurement": "viability, T/C", "setting": "[28]", "result": 24.5, "unit": "%"}, {"measurement": "viability, T/C", "setting": "[29]", "result": 11.7, "unit": "%"}, {"measurement": "viability, T/C", "setting": "[30]", "result": 45.5, "unit": "%"}, {"measurement": "viability, T/C", "setting": "[31]", "result": 15.6, "unit": "%"}, {"measurement": "viability, T/C", "setting": "[32]", "result": 20.1, "unit": "%"}, {"measurement": "viability, T/C", "setting": "[33]", "result": 20.7, "unit": "%"}, {"measurement": "viability, T/C", "setting": "[34]", "result": 24.1, "unit": "%"}, {"measurement": "viability, T/C", "setting": "[35]", "result": 12.5, "unit": "%"}, {"measurement": "viability, T/C", "setting": "[36]", "result": 48.7, "unit": "%"}]}]}
